Earlier results as cited in patent publication US12622947B2, “Pharmaceutical composition for treating levodopa-induced dyskinesia or for suppressing progression thereof” (PEPTRON, INC., priority 2019, dated 2026).

Tests used:
MPTP mouse model = settings: given daily for 7 days after treatment (Liu et al., 2015)
[1] = in vivo
[2] = compared to GLP-1-Tf (Martin et al., 2012)

Exendin-4
neuro-protection (MPTP mouse model): not effective
crossing the BBB / entry into the brain from blood [1]: enter the brain from blood although its entry speed is limited
rotarod performance [2]: improve rotarod performance
